Measurements published in US20070249670A1, “Glycogen Phosphorylase Inhibitor Compounds and Pharmaceutical Compositions Thereof” (SMITHKLINE BEECHAM CORPORATION, priority 2004, published 2007).
Where a name gives a salt, the structure may show the parent alone.

Biological target: T1, human liver glycogen phosphorylase a (HLGPa) (Homo sapiens, UniProt P06737)
T1 construct: creating a full-length cDNA fused at the 5′ end to codons for methionine-glycine-alanine-histidine; 6xHis tag (leader Met-Gly-Ala-His6-Gly-Gly) (N); made in house; host or cells: E. coli (bacterial expression plasmid pTXK1007LTev)
T1 sequence (P06737 2-847 limits assumed): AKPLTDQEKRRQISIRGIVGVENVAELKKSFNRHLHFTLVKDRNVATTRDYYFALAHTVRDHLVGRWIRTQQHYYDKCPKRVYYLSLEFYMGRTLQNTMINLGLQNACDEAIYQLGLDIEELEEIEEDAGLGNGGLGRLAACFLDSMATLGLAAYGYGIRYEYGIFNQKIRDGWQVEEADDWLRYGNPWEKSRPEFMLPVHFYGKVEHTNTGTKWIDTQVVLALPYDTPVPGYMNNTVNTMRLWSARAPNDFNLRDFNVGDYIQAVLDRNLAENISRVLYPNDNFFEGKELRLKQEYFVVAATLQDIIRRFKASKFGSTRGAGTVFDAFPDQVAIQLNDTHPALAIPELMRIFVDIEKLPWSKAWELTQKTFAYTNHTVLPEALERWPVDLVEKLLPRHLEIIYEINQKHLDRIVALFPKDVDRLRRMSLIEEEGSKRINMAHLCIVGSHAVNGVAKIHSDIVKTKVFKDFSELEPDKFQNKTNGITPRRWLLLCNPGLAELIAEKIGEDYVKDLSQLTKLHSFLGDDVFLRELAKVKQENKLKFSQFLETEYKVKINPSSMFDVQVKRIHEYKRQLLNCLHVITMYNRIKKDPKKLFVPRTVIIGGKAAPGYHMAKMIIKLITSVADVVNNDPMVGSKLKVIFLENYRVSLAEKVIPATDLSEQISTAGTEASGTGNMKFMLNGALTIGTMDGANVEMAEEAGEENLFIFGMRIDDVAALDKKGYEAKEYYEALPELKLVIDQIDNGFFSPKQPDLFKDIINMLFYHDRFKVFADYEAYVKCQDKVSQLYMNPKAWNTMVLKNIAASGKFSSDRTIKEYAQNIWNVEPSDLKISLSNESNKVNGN
Assay: Human liver glycogen phosphorylase a enzymatic activity assay (coupled, fluorescent resorufin readout, with and without 10 mM glucose)
Format: biochemical

[1] = human liver glycogen phosphorylase a enzymatic activity assay
[2] = human liver glycogen phosphorylase a, table does not say whether with or without 10 mM glucose

Question: With `Cc1ccc(C(=O)N[C@H](C(=O)O)C2CCCCC2)c(NC(=O)Nc2c(C)cccc2C)c1` [Example 176, (2S)-cyclohexyl({[2-({[(2,6-dimethylphenyl)amino]carbonyl}amino)-4-methylphenyl]carbonyl}amino)ethanoic acid] as the molecule, how does the IC50 [1] read?
Answer: 750 nM

Question: How did the IC50 [2] turn out when `Cc1cccc(C)c1NC(=O)Nc1cc2ccccc2cc1C(=O)N(CC(=O)O)CC1CCCCC1` [Example 243, N-(cyclohexylmethyl)-N-{[3-({[(2,6-dimethylphenyl)amino]carbonyl}amino)-2-naphthalenyl]carbonyl}glycine] was run?
Answer: 1770 nM

Question: `O=C(Nc1cc(-c2ccc(OC(F)(F)F)cc2)sc1C(=O)N[C@H](C(=O)O)C1CCCCC1)Nc1c(Cl)cccc1Cl` [Example 435, (2S)-cyclohexyl{[(3-({[(2,6-dichlorophenyl)amino]carbonyl}amino)-5-{4-[(trifluoromethyl)oxy]phenyl}-2-thienyl)carbonyl]amino}ethanoic acid] was tested. Which IC50 [1] did it give?
Answer: 1630 nM

Question: For `COc1ccc(-c2cc(NC(=O)Nc3c(C)cc(C)cc3C)c(C(=O)N[C@H](C(=O)O)[C@@H](C)OC(C)(C)C)s2)cc1` [Example 446, O-(1,1-dimethylethyl)-N-{[5-[4-(methyloxy)phenyl]-3-({[(2,4,6-trimethylphenyl)amino]carbonyl}amino)-2-thienyl]carbonyl}-L-threonine], which IC50 [1] is on record?
Answer: 31 nM

Question: How did the IC50 [2] turn out when `Cc1cc(C)c(NC(=O)Nc2cc(-c3ccc(F)c(F)c3)ccc2C(=O)N[C@H](CC(=O)O)C(=O)O)c(C)c1` [Example 376, N-{[3′,4′-difluoro-3-({[(2,4,6-trimethylphenyl)amino]carbonyl}amino)-4-biphenylyl]carbonyl}-D-aspartic acid] was run?
Answer: 110 nM

Question: For `O=C(Nc1cc2ccccc2cc1C(=O)NC(C(=O)O)[C@H]1CC[C@H](C(F)(F)F)CC1)Nc1c(Cl)cc(OC(F)(F)F)cc1Cl` (stereo partly drawn) [Example 466, {[(3-{[({2,6-dichloro-4-[(trifluoromethyl)oxy]phenyl}amino)carbonyl]amino}-2-naphthalenyl)carbonyl]amino}[trans-4-(trifluoromethyl)cyclohexyl]acetic acid], which IC50 [1] is on record?
Answer: 13 nM

Question: `CCOC(=O)C[C@H](NC(=O)c1ccc(-c2ccc(OC)cc2)cc1NC(=O)Nc1c(C)cc(C)cc1C)C(=O)O` [Example 367, (2S)-4-(ethyloxy)-2-({[4′-(methyloxy)-3-({[(2,4,6-trimethylphenyl)amino]carbonyl}amino)-4-biphenylyl]carbonyl}amino)-4-oxobutanoic acid] was tested. Which IC50 [2] did it give?
Answer: 640 nM

Question: `COc1ccc(-c2ccc(C(=O)N[C@@H](CC(=O)OC(C)(C)C)C(=O)OC(C)(C)C)c(NC(=O)Nc3c(C)cc(C)cc3C)c2)cc1` [Example 361, bis(1,1-dimethylethyl) N-{[4′-(methyloxy)-3-({[(2,4,6-trimethylphenyl)amino]carbonyl}amino)-4-biphenylyl]carbonyl}-L-aspartate] was tested. Which IC50 [2] did it give?
Answer: 6070 nM

Question: With `O=C(Nc1ccc2c(c1)CCO2)Nc1cc2ccccc2cc1C(=O)N[C@H](C(=O)O)C1CCCCC1` [Example 248, (2S)-cyclohexyl{[(3-{[(2,3-dihydro-1-benzofuran-5-ylamino)carbonyl]amino}-2-naphthalenyl)carbonyl]amino}ethanoic acid] as the molecule, how does the IC50 [2] read?
Answer: 15100 nM

Question: How did the IC50 [1] turn out when `CC[C@H](C)[C@H](NC(=O)c1c(NC(=O)Nc2c(C)cccc2C)sc2c1CCCC2)C(=O)O` [Example 126, N-{[2-({[(2,6-dimethylphenyl)amino]carbonyl}amino)-4,5,6,7-tetrahydro-1-benzothien-3-yl]carbonyl}-L-isoleucine] was run?
Answer: 13900 nM

Question: With `O=C(Nc1cc2ccccc2cc1C(=O)N1CCCC(C(=O)O)C1)Nc1c(Cl)cccc1Cl` (stereo not drawn) [Example 333, 1-{[3-({[(2,6-Dichlorophenyl)amino]carbonyl}amino)-2-naphthalenyl]carbonyl}-3-piperidinecarboxylic acid] as the molecule, how does the IC50 [2] read?
Answer: 9270 nM

Question: For `Cc1cc(C)c(NC(=O)Nc2cc(F)ccc2C(=O)N[C@@H](CC(=O)O)C(=O)O)c(C)c1` [Example 365, N-{[4-fluoro-2-({[(2,4,6-trimethylphenyl)amino]carbonyl}amino)phenyl]carbonyl}-L-aspartic acid], which IC50 [2] is on record?
Answer: 1680 nM

Question: Which IC50 [1] does the source give for `Cc1cc(C)c(NC(=O)Nc2cc(-c3ccc(Cl)cc3)sc2C(=O)NC2(C(=O)O)CCCCC2)c(C)c1` [Example 533, 1-({[5-(4-Chlorophenyl)-3-({[(2,4,6-trimethylphenyl)amino]carbonyl}amino)-2-thienyl]carbonyl}amino)cyclohexanecarboxylic acid] here?
Answer: 3 nM

Question: For `Cc1cc(C)c(NC(=O)Nc2cc(-c3ccc(OC(F)(F)F)cc3)sc2C(=O)O)c(C)c1` [Example 436, 5-{4-[(trifluoromethyl)oxy]phenyl}-3-({[(2,4,6-trimethylphenyl)amino]carbonyl}amino)-2-thiophenecarboxylic acid], which IC50 [1] is on record?
Answer: 1570 nM

Question: With `COCCOC[C@H](NC(=O)c1cc2ccccc2cc1NC(=O)Nc1c(C)cc(C)cc1C)C(=O)O` [Example 272, O-[2-(methyloxy)ethyl]-N-{[3-({[(2,4,6-trimethylphenyl)amino]carbonyl}amino)-2-naphthalenyl]carbonyl}-L-serine] as the molecule, how does the IC50 [2] read?
Answer: 38 nM

Question: How did the IC50 [1] turn out when `Cc1cccc(Cl)c1NC(=O)Nc1cc(F)c(F)cc1C(=O)N[C@@H](CC(=O)O)C(=O)O` [Example 66, N-[2-({[(2-chloro-6-methylphenyl)amino]carbonyl}amino)-4,5-difluorobenzoyl]-L-aspartic acid] was run?
Answer: 7160 nM

Question: For `C#CCc1cc(C)c(NC(=O)Nc2cc3ccccc3cc2C(=O)N[C@H](C(=O)O)C2CCCCC2)c(C)c1` [Example 471, (2S)-cyclohexyl[({3-[({[2,6-dimethyl-4-(2-propyn-1-yl)phenyl]amino}carbonyl)amino]-2-naphthalenyl}carbonyl)amino]ethanoic acid], which IC50 [1] is on record?
Answer: 3 nM

Question: With `Cc1cccc(Cl)c1NC(=O)Nc1cc2ccccc2cc1C(=O)N[C@@H](Cc1cnc[nH]1)C(=O)O` [Example 61, N-[3-({[(2-chloro-6-methylphenyl)amino]carbonyl}amino)-2-naphthoyl]-L-histidine trifluoroacetate] as the molecule, how does the IC50 [1] read?
Answer: 450 nM

Question: For `CCCCCc1cc(C)c(NC(=O)Nc2cc(F)ccc2C(=O)N[C@H](C(=O)O)C2CCCCC2)c(C)c1` [Example 478, (2S)-cyclohexyl({[2-({[(2,6-dimethyl-4-pentylphenyl)amino]carbonyl}amino)-4-fluorophenyl]carbonyl}amino)ethanoic acid], which IC50 [1] is on record?
Answer: 3 nM

Question: Which IC50 [1] does the source give for `Cc1cccc(C)c1NC(=O)Nc1cc(-c2ccncc2)ccc1C(=O)N[C@H](C(=O)O)C1CCCCC1` [Example 185, (2S)-Cyclohexyl({[2-({[(2,6-dimethylphenyl)amino]carbonyl}amino)-4-(4-pyridinyl)phenyl]carbonyl}amino)ethanoic acid] here?
Answer: 170 nM

Question: With `O=C(Nc1sc(-c2ccc(F)cc2)cc1C(=O)N[C@H](C(=O)O)C1CCCCC1)Nc1c(Cl)cccc1Cl` [Example 419, (2S)-cyclohexyl({[2-({[(2,6-dichlorophenyl)amino]carbonyl}amino)-5-(4-fluorophenyl)-3-thienyl]carbonyl}amino)ethanoic acid] as the molecule, how does the IC50 [1] read?
Answer: 600 nM

Question: `COc1ccc(NC(=O)Nc2cc3ccccc3cc2C(=O)N[C@H](C(=O)O)C2CCCCC2)c(OC)c1` [Example 239, (2S)-[({3-[({[2,4-bis(methyloxy)phenyl]amino}carbonyl)amino]-2-naphthalenyl}carbonyl)amino](cyclohexyl)ethanoic acid] was tested. Which IC50 [2] did it give?
Answer: 2380 nM

Question: With `O=C(Nc1cc(-c2cccnc2)sc1C(=O)N[C@H](C(=O)O)C1CCCCC1)Nc1c(Cl)cccc1Cl` [Example 405] as the molecule, how does the IC50 [1] read?
Answer: 230 nM

Question: With `Cc1cc(C(=O)O)c(NC(=O)Nc2c(Cl)cccc2Cl)s1` [Example 388, 2-({[(2,6-dichlorophenyl)amino]carbonyl}amino)-5-methyl-3-thiophenecarboxylic acid] as the molecule, how does the IC50 [2] read?
Answer: 19700 nM

Question: With `Cc1cc(C)c(NC(=O)Nc2cc3ccccc3cc2C(=O)NC2(C(=O)O)CCS(=O)(=O)CC2)c(C)c1` [Example 285, 4-({[3-({[(2,4,6-Trimethylphenyl)amino]carbonyl}amino)-2-naphthalenyl]carbonyl}amino)tetrahydro-2H-thiopyran-4-carboxylic acid 1,1-dioxide] as the molecule, how does the IC50 [2] read?
Answer: 3310 nM

Question: How did the IC50 [1] turn out when `Cc1cc(C)c(NC(=O)Nc2cc(F)ccc2C(=O)N[C@H](C(=O)O)C2CCCCC2)c(C)c1` [Example 192, (2S)-Cyclohexyl({[4-fluoro-2-({[(2,4,6-trimethylphenyl)amino]carbonyl}amino)phenyl]carbonyl}amino)ethanoic acid] was run?
Answer: 120 nM

Question: Which IC50 [1] does the source give for `COc1ccc(-c2cc(NC(=O)Nc3c(C)cc(C)cc3C)c(C(=O)N3CCC[C@H]3C(=O)O)s2)cc1` [Example 447, 1-{[5-[4-(methyloxy)phenyl]-3-({[(2,4,6-trimethylphenyl)amino]carbonyl}amino)-2-thienyl]carbonyl}-L-proline] here?
Answer: 26 nM
